What all share (type): biochemical
One experiment concerns the target T1, recombinant human VAP-1 (Homo sapiens, UniProt Q16853).
T1 construct: purchased R&D systems
T1 sequence (Q16853 1-763): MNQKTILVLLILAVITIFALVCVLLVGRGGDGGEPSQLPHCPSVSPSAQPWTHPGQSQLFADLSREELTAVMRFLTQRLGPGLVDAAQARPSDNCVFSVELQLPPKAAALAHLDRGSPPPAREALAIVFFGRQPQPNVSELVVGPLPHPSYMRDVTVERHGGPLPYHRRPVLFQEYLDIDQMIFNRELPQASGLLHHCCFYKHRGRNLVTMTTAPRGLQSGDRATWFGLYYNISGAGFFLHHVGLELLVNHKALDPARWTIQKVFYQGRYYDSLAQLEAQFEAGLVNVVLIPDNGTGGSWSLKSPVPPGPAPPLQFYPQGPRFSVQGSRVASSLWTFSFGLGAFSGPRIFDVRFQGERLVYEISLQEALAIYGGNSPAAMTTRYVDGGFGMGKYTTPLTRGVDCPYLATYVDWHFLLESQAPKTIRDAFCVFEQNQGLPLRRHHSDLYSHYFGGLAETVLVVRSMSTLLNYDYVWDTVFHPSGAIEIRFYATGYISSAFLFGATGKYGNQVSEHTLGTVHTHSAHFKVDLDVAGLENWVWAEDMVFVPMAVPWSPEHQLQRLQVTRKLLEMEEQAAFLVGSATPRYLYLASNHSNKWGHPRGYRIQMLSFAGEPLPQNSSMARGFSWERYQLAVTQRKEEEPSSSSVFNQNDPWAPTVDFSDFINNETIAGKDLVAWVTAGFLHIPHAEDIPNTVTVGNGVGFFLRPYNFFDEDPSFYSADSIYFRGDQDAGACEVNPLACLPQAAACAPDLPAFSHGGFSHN
The experiment in a line: Activity on recombinant human VAP-1, HRP-coupled Amplex Red hydrogen peroxide assay. Conditions: substrate 1 mM benzylamine; compound incubated with enzyme at 37° C. for 30 minutes; pH 7.4; read-out: Inhibitory Activity (IC50, nM) human VAP-1. Summed up:
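Dose-response IC50 determined from reduction in resorufin signal rate (544/590 nm, 1-2 h), with 30 min compound preincubation at 37 °C and 1 mM benzylamine as substrate.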

For experiment [1], the target named is T2, recombinant human MAO-A (monoamine oxidase-A) (Homo sapiens, UniProt P21397).
T2 construct: purchased Sigma-Aldrich
T2 sequence (P21397 1-527): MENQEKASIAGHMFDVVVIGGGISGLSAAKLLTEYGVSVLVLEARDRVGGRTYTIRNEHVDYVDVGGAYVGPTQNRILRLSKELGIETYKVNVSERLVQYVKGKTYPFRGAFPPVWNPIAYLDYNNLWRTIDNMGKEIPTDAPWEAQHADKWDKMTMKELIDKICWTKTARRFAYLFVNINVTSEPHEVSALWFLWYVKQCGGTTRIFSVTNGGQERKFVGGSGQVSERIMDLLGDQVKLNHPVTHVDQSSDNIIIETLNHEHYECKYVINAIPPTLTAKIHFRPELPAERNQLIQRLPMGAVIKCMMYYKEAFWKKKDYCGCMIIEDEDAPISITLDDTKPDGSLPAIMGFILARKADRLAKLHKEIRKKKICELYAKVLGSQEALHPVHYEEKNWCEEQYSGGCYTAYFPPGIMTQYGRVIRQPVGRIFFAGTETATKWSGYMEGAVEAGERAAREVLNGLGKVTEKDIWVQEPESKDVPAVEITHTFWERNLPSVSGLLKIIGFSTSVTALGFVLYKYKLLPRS
The experiment in a line: Activity on recombinant human MAO-A, method similar to the VAP-1 assay. The note with it: substrate 0.5 mM tyramine; read-out: Inhibitory Activity (IC50, nM) MAO-A. Summed up:
(§1)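 Amplex Red/HRP coupled read-out of H2O2 with 0.5 mM tyramine for MAO-A or 1 mM benzylamine for MAO-B, following a 30-min compound–enzyme preincubation at 37° C. IC50 from percent inhibition of signal rate relative to uninhibited control.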

For experiment [2], the target named is T3, recombinant human MAO-B (monoamine oxidase-B) (Homo sapiens, UniProt P27338).
T3 construct: purchased Sigma-Aldrich
T3 sequence (P27338 1-520): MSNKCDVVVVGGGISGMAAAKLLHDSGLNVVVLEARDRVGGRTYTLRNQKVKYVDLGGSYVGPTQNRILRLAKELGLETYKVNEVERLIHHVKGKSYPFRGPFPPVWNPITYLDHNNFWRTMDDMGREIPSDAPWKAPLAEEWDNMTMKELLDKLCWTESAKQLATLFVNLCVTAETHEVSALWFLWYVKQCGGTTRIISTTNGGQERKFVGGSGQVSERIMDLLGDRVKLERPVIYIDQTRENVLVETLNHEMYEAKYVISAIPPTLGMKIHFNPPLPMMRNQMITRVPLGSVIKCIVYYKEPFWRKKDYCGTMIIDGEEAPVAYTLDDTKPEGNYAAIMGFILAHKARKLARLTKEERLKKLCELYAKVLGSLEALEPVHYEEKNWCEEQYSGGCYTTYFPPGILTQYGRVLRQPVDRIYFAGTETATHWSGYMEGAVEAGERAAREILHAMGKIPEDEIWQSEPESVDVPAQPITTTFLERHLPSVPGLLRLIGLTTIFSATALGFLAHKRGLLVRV
The experiment in a line: Activity on recombinant human MAO-B, method similar to the VAP-1 assay. Conditions: substrate 1 mM benzylamine; read-out: Inhibitory Activity (IC50, nM) MAO-B. Summed up: as §1

The target in experiment [3] is T4, recombinant human DAO (diamine oxidase) (Homo sapiens, UniProt P19801).
T4 construct: purchased R&D systems
T4 sequence (P19801 20-751): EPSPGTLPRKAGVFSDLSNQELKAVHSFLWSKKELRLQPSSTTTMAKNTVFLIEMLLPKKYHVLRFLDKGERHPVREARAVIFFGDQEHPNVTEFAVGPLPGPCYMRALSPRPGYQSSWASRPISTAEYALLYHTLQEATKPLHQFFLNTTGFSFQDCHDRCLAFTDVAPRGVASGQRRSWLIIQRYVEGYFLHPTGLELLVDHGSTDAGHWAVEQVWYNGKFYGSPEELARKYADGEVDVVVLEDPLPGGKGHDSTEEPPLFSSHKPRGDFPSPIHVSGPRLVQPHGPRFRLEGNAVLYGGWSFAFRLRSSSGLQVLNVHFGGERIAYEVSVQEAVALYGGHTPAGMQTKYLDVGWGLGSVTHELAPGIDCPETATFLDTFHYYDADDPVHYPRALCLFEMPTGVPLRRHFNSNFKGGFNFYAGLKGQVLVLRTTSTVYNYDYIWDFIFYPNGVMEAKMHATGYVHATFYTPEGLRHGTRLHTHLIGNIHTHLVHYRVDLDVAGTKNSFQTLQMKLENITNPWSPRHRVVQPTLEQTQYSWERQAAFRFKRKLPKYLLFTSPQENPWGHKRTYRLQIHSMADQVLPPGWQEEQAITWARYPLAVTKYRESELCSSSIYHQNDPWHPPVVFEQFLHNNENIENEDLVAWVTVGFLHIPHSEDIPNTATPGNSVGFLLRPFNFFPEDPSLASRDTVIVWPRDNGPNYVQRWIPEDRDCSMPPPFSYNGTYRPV
The experiment in a line: Activity on recombinant human DAO, method similar to the VAP-1 assay. Conditions: substrate 1 mM putrescine; read-out: Inhibitory Activity (IC50, nM) DAO. Summed up:
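Inhibition of recombinant human diamine oxidase (DAO, R&D systems) was assessed by the same approach as the VAP-1 assay, using 1 mM putrescine as substrate. Hydrogen peroxide formed was detected through an HRP-coupled Amplex Red reaction yielding fluorescent resorufin, read at 544 nm excitation and 590 nm emission. IC50 values came from four-parameter logistic fitting in GraphPad Prism.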

Counter-ions that a name gives are not always drawn.

The IC50 is the midpoint of a concentration-inhibition curve. Turning to `CN1C(=O)COc2ccc(-c3ccc(Cn4cnn(C/C(=C/F)CN)c4=O)s3)cc21` [Example 96, 6-[5-(1-[(2E)-2-(aminomethyl)-3-fluoroprop-2-en-1-yl]-5-oxo-1,5-dihydro-4H-1,2,4-triazol-4-ylmethyl)thiophen-2-yl]-4-methyl-2H-1,4-benzoxazin-3(4H)-one hydrochloride], the IC50 at recombinant human VAP-1 is 0.8 nM; in experiment [1] it was 87000 nM; in experiment [2], 120 nM; in experiment [3] it was 310 nM.
Taken in the same sequence, the figures for `NC/C(=C\F)Cn1ncn(Cc2ccc(-c3ccc(S(=O)(=O)NC4CC4)cc3)s2)c1=O` [Example 197, 4-[5-({1-[(2E)-2-(aminomethyl)-3-fluoroprop-2-en-1-yl]-5-oxo-1,5-dihydro-4H-1,2,4-triazol-4-yl}methyl)thiophen-2-yl]-N-cyclopropylbenzenesulfonamide] were 2 nM, greater than 100000 nM, 2700 nM and 340 nM.
For `CN(C)c1cccc(-c2ccc(Cn3cnn(C/C(=C/F)CN)c3=O)s2)c1` [Example 4, 2-[(2E)-2-(aminomethyl)-3-fluoroprop-2-en-1-yl]-4-(5-[3-(dimethylamino)phenyl]thiophen-2-ylmethyl)-2,4-dihydro-3H-1,2,4-triazol-3-one hydrochloride], in that order: 4.6 nM, 35000 nM, 50 nM and 9500 nM.
Taken in the same sequence, the figures for `NC/C(=C\F)Cn1ncn(Cc2ccc(-c3ccc4c(c3)SCC(=O)N4)s2)c1=O` [Example 85, 7-[5-[[1-[(E)-2-(aminomethyl)-3-fluoro-allyl]-5-oxo-1,2,4-triazol-4-yl]methyl]-2-thienyl]-4H-1,4-benzothiazin-3-one hydrochloride] were 0.3 nM, greater than 100000 nM, 1700 nM and 320 nM.
Take `CN(C)C(=O)c1cccc(-c2ccc(Cn3cnn(C/C(=C/F)CN)c3=O)s2)c1` [Example 182, 3-[5-({1-[(2E)-2-(aminomethyl)-3-fluoroprop-2-en-1-yl]-5-oxo-1,5-dihydro-4H-1,2,4-triazol-4-yl}methyl)thiophen-2-yl]-N,N-dimethylbenzamide]: the IC50 on recombinant human VAP-1 was 3.7 nM; in experiment [1] it was greater than 100000 nM; in experiment [2], 6600 nM; in experiment [3], 3600 nM.
`NC/C(=C\F)Cn1ncn(Cc2ccc(-c3cccc(-c4ncon4)c3)s2)c1=O` [Example 34, 2-[(2E)-2-(aminomethyl)-3-fluoroprop-2-en-1-yl]-4-(5-[3-(1,2,4-oxadiazol-3-yl)phenyl]thiophen-2-ylmethyl)-2,4-dihydro-3H-1,2,4-triazol-3-one]: the IC50 at recombinant human VAP-1 is 2 nM; in experiment [1], greater than 100000 nM; in experiment [2], 116 nM; in experiment [3], 660 nM.
For `NC/C(=C\F)Cn1ncn(Cc2ccc(-c3cnn(Cc4ccccc4)c3)s2)c1=O` [Example 151, 2-[(2E)-2-(aminomethyl)-3-fluoroprop-2-en-1-yl]-4-{[5-(1-benzyl-1H-pyrazol-4-yl)thiophen-2-yl]methyl}-2,4-dihydro-3H-1,2,4-triazol-3-one], in that order: 2.7 nM, 59000 nM, 1500 nM and 790 nM.
As for `CSc1ncc(-c2ccc(Cn3cnn(C/C(=C/F)CN)c3=O)s2)cn1` [Example 56, 2-[(2E)-2-(aminomethyl)-3-fluoroprop-2-en-1-yl]-4-(5-[2-(methylsulfanyl)pyrimidin-5-yl]thiophen-2-ylmethyl)-2,4-dihydro-3H-1,2,4-triazol-3-one hydrochloride], the IC50 on recombinant human VAP-1 is 0.4 nM; in experiment [1], greater than 100000 nM; in experiment [2], 4200 nM; in experiment [3], 40 nM.
Taken in the same sequence, the figures for `CN(C)c1ccc(/C=C/c2ccc(Cn3cnn(C/C(=C/F)CN)c3=O)s2)cc1` [Example 120, 2-[(E)-2-(aminomethyl)-3-fluoro-allyl]-4-[[5-[2-[4-(dimethylamino)phenyl]vinyl]-2-thienyl]methyl]-1,2,4-triazol-3-one] were 6.2 nM, 16000 nM, 340 nM and 1100 nM.
For `NC/C(=C\F)Cn1ncn(Cc2ccc(/C=C/c3ccc(O)cc3)s2)c1=O` [Example 116, 2-[(2E)-2-(aminomethyl)-3-fluoroprop-2-en-1-yl]-4-(5-[(E)-2-(4-hydroxyphenyl)ethenyl]thiophen-2-ylmethyl)-2,4-dihydro-3H-1,2,4-triazol-3-one hydrochloride], in that order: 0.6 nM, 4400 nM, 180 nM and 1700 nM.
Taken in the same sequence, the figures for `NC/C(=C/F)Cn1ncn(Cc2ccc(-c3ccc(N)cc3)s2)c1=O` [Example 3, 2-[(2Z)-2-(aminomethyl)-3-fluoroprop-2-en-1-yl]-4-[5-(4-aminophenyl)thiophen-2-yl]methyl-2,4-dihydro-3H-1,2,4-triazol-3-one hydrochloride] were 4.7 nM, 72000 nM, 21 nM and 860 nM.

These data come from patent US11780830B2, “Triazolone derivatives or salts thereof and pharmaceutical compositions comprising the same” (YUHAN CORPORATION, priority 2018, dated 2023).
